molecular target: T1, hMAO-B (Homo sapiens, UniProt P27338); experiment: Inhibition assay using human recombinant MAO-B (fluorimetric Amplex Red assay); assay type: biochemical; details: 1 mM p-tyramine, 15 min pre-incubation at 37 °C, pH 7.4, Amplex Red/horseradish peroxidase, read-out: hMAO-B IC50 [nM] ±SEM
T1 construct: purchased Sigma Aldrich M7441; host or cells: baculovirus infected insect cells (BTI-TN-5B1-4)
T1 sequence (P27338 1-520): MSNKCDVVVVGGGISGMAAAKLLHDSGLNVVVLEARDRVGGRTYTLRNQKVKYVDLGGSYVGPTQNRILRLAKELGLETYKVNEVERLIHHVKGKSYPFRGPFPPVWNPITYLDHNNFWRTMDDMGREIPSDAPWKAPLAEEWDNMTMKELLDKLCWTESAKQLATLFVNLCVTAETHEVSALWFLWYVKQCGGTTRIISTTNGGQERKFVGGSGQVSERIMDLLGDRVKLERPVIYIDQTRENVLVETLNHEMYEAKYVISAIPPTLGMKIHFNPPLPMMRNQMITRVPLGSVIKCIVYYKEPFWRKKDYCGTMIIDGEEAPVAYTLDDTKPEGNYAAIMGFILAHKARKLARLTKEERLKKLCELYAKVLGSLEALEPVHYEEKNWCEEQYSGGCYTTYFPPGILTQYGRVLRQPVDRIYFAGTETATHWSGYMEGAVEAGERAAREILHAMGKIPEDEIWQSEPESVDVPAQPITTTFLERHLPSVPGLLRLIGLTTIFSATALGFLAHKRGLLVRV
Procedure: The inhibitory activity of the compounds was evaluated by their effects on the production of hydrogen peroxide (H2O2) from p-tyramine, a nonspecific substrate for both hMAO isoforms. The production of the H2O2 was detected using Amplex Red reagent in the presence of horseradish peroxidase, where a highly sensitive fluorescent product, resorufin, is produced at stoichiometric amounts. Recombinant human microsomal hMAO enzymes expressed in baculovirus infected insect cells (BTI-TN-5B1-4), horse-radish peroxidase (type II, lyophilized powder), and p-tyramine hydrochloride were purchased from Sigma Aldrich.
The production of resorufin was quantified on the basis of the fluorescence generated (λex= 530 nm, λem = 590 nm) at 37 °C over a period of 20 min, during which time the fluorescence increase linearly. For control experiments, DMSO was used instead of the appropriate dilutions of the compounds in DMSO. To determine the blank value (b), phosphate-buffered solution replaced the enzyme solution. The initial velocities were calculated from the trends obtained, with each measurement carried out in duplicate. The inhibitory potencies are expressed as the residual activities (RA = (vi-b) / (vo-b), where vi is the velocity in the presence of the test compounds, and v0 the control velocity in the presence of DMSO. The IC50 values were obtained by plotting residual enzyme activities against applied inhibitor concentration, with the experimental data fitted to a Hill four parameter equation (Equation (1)) using in-house python script and Gnuplot software. Y = Min + (Max−Min)/(1+10^(∧)((LogIC50−X)×Hillcoefficient)) [formula] where X represent logarithm of inhibitor concentration, and Y the residual activity.
The capacity of the test compounds to react directly with Amplex Red was determined by adding these compounds to a solution containing all of the components except the MAO isoenzyme.

Row | IC50 [nM] | Structure (SMILES)
1 | 730 ± 85.6 | C#CCN1CCC(/C=C/c2ccccn2)CC1
2 | 48800 ± 3240 | C#CCN1CCC(=Cc2ccc(F)cc2)CC1
3 | 1700 ± 292 | C#CCCN1CCC(CCc2ccc(F)cc2)CC1
4 | 1440 ± 140 | C#CCN1CCC(CCc2ccc(Br)cc2)CC1
5 | 250 ± 42.4 | C#CCN1CCCC(CCc2ccc(F)cc2)CC1 (stereo not drawn)
6 | 17400 ± 2040 | C#CCN1CCC(/C=C/c2ccc(F)cc2)C1 (stereo not drawn)
7 | 475 ± 28.6 | C#CCCN1CCC(/C=C/c2ccc(F)cc2)CC1 [drawing 173]
8 | 163 ± 17 | C#CCCCN1CCC(/C=C/c2ccc(F)cc2)CC1 [drawing 177]
9 | 59.2 ± 6 | C#CCN1CCCC(Cc2ccc(F)cc2)CC1 (stereo not drawn) [drawing 183]

molecular target: T1, hMAO-B; experiment: Reversibility assay (100-fold dilution); assay type: biochemical; details: hMAO-B at 100-fold final concentration incubated 15 min at 37 °C with inhibitor at 10-fold the IC50, then diluted 100-fold; monitored 30 min
Procedure: The final concentrations of all of the reagents and MAO-B were the same as in the assay described above. The reaction was monitored for 30 min. Control experiments were carried out in the same manner, where the inhibitor solution was replaced by DMSO.

Row | Activity of the enzyme after 100-fold dilution (in percentage ±SD) [percentage] | Structure (SMILES)
10 | 94.91 ±2.52 | C#CCCN1CCC(/C=C/c2ccc(F)cc2)CC1 [drawing 194]
11 | 74.01 ±2.76 | C#CCCCN1CCC(/C=C/c2ccc(F)cc2)CC1 [drawing 195]
12 | 5.55 ±0.25 | C#CCN1CCCC(Cc2ccc(F)cc2)CC1 (stereo not drawn) [drawing 196]
